{
  "source": "patent US20040092565A1",
  "about": "“Composition and method of sustaining chemotherapeutic effect while reducing dose of chemotherapeutic agent using cox-2 inhibitor and statin” (priority 2001, published 2004)",
  "origin": "cited, not measured here",
  "key": {"[1]": {"system": "Prostate Cancer Cell Line LNCaP", "conditions": "literature reports on LNCaP and human prostate carcinoma cells"}, "[2]": {"system": "prostate cancer specimen", "conditions": "mice, in vivo"}, "[3]": {"system": "cisplatin-induced side effects", "conditions": "5 g of glutathione immediately before cisplatin"}, "[4]": {"conditions": "package insert"}},
  "note": "Where two headings read alike, the source gives them in different places.",
  "data": [
    {"compound": "CC[C@H](C)C(=O)O[C@H]1C[C@@H](C)C=C2C=C[C@H](C)[C@H](CC[C@@H]3C[C@@H](O)CC(=O)O3)[C@H]21", "note": "[lovastatin]", "values": [
      {"measurement": "therapeutic value in prostate cancer", "setting": "[1]", "result": "had therapeutic value in treating prostate cancer"}
    ]},
    {"compound": "CS(=O)(=O)Nc1ccc([N+](=O)[O-])cc1OC1CCCCC1", "note": "[NS398]", "values": [
      {"measurement": "angiogenesis of prostate cancer specimen", "setting": "[2]", "result": "inhibit angiogenesis"}
    ]},
    {"compound": "N[C@@H](CCC(=O)N[C@@H](CS)C(=O)NCC(=O)O)C(=O)O", "note": "[glutathione, gamma-Glu-Cys-Gly]", "values": [
      {"measurement": "intensity of hematologic toxicity", "setting": "[3]; compared with control group", "result": "significantly less pronounced"},
      {"measurement": "overall survival", "setting": "[3]; vs. 10.5 months in the other group, no statistical difference", "result": 13.5, "unit": "months"}
    ]},
    {"compound": "CS(=O)(=O)c1ccc(C2=C(c3ccccc3)C(=O)OC2)cc1", "note": "[rofecoxib]", "values": [
      {"measurement": "time to maximum plasma concentration", "setting": "[4]; for some persons", "result": "2 to 9", "unit": "h"},
      {"measurement": "time to maximum plasma concentration", "setting": "[4]; on average", "result": "2 to 3", "unit": "h"}
    ]}
  ]
}
